Measured values published in publication PMC5218480 (PLoS ONE, 2017).

Tested on: MV-4-11 cells
Assay: Gene expression microarray analysis (Affymetrix PrimeView) and GSEA
Type: cell-based, human
Design: RFU PODN (11730768_x_at) / Fold change /veh PODN (11730768_x_at) / RFU LINC00158 (11744669_a_at) / Fold change /veh LINC00158 (11744669_a_at) / RFU DUSP10 (11751237_a_at) / Fold change /veh DUSP10 (11751237_a_at) / RFU ID3 (11757404_x_at) / Fold change /veh ID3 (11757404_x_at) / RFU PLEKHG5 (11737974_s_at) / Fold change /veh PLEKHG5 (11737974_s_at) / RFU LRRC4B (11730491_at) / Fold change /veh LRRC4B (11730491_at) / RFU GIMAP4 (11747438_a_at) / Fold change /veh GIMAP4 (11747438_a_at) / RFU KRT8 (11758183_x_at) / Fold change /veh KRT8 (11758183_x_at) / RFU CNN1 (11734310_a_at) / Fold change /veh CNN1 (11734310_a_at) / RFU VPS37D (11726825_at) / Fold change /veh VPS37D (11726825_at) / RFU C10orf10 (11716522_x_at) / Fold change /veh C10orf10 (11716522_x_at) / RFU KIR2DL2 /// KIR2DL4 /// KIR2DL5A /// KIR2DL5B /// KIR2DS1 /// KIR2DS2 /// KIR2DS3 /// KIR2DS4 /// KIR3DL3 /// KIR3DL3 /// KIR3DS1 (11738374_at) / Fold change /veh KIR2DL2 /// KIR2DL4 /// KIR2DL5A /// KIR2DL5B /// KIR2DS1 /// KIR2DS2 /// KIR2DS3 /// KIR2DS4 /// KIR3DL3 /// KIR3DL3 /// KIR3DS1 (11738374_at) / RFU C1QL1 (11718748_at) / Fold change /veh C1QL1 (11718748_at) / RFU TMPRSS4 (11747572_a_at) / Fold change /veh TMPRSS4 (11747572_a_at) / RFU HAMP (11756126_x_at) / Fold change /veh HAMP (11756126_x_at) / RFU RNFT2 (11725882_a_at) / Fold change /veh RNFT2 (11725882_a_at) / RFU NR4A2 (11747474_a_at) / Fold change /veh NR4A2 (11747474_a_at) / RFU ABCC12 (11746883_a_at) / Fold change /veh ABCC12 (11746883_a_at) / RFU TMEM136 (11760407_x_at) / Fold change /veh TMEM136 (11760407_x_at) / RFU CLDN22 /// WWC2 (11732394_at) / Fold change /veh CLDN22 /// WWC2 (11732394_at) / RFU HLA-DPB1 (11760878_x_at) / Fold change /veh HLA-DPB1 (11760878_x_at) / RFU SPINT1 (11716480_a_at) / Fold change /veh SPINT1 (11716480_a_at) / RFU GAP43 (11754022_s_at) / Fold change /veh GAP43 (11754022_s_at) / RFU A4GNT (11735810_at) / Fold change /veh A4GNT (11735810_at) / RFU PRB3 (11715151_x_at) / Fold change /veh PRB3 (11715151_x_at) / RFU TUBB4B (11761932_at) / Fold change /veh TUBB4B (11761932_at) / RFU CAPN14 (11732068_a_at) / Fold change /veh CAPN14 (11732068_a_at) / RFU TMCC2 (11721928_a_at) / Fold change /veh TMCC2 (11721928_a_at) / RFU IRGQ (11745062_a_at) / Fold change /veh IRGQ (11745062_a_at) / RFU FAM174B (11720279_a_at) / Fold change /veh FAM174B (11720279_a_at) / RFU TMPRSS4 (11748680_a_at) / Fold change /veh TMPRSS4 (11748680_a_at) / RFU FAM212B (11763350_a_at) / Fold change /veh FAM212B (11763350_a_at) / RFU PLEKHG5 (11743358_a_at) / Fold change /veh PLEKHG5 (11743358_a_at) / RFU ZSCAN30 (11745921_a_at) / Fold change /veh ZSCAN30 (11745921_a_at) / RFU CMKLR1 (11741424_a_at) / Fold change /veh CMKLR1 (11741424_a_at) / RFU LOC101060620 /// MAPK8IP1 (11723275_at) / Fold change /veh LOC101060620 /// MAPK8IP1 (11723275_at) / RFU SPTSSB (11747773_x_at) / Fold change /veh SPTSSB (11747773_x_at) / RFU PRSS12 (11739890_at) / Fold change /veh PRSS12 (11739890_at) / RFU BIN1 (11741810_x_at) / Fold change /veh BIN1 (11741810_x_at) / RFU WNT11 (11732464_a_at) / Fold change /veh WNT11 (11732464_a_at) / RFU C10orf10 (11716521_a_at) / Fold change /veh C10orf10 (11716521_a_at) / RFU C5orf56 (11738089_at) / Fold change /veh C5orf56 (11738089_at) / RFU CYB561 (11721691_x_at) / Fold change /veh CYB561 (11721691_x_at) / RFU ANKRD19P (11752326_a_at) / Fold change /veh ANKRD19P (11752326_a_at) / RFU OR2T12 /// OR2T33 /// OR2T8 (11738714_s_at) / Fold change /veh OR2T12 /// OR2T33 /// OR2T8 (11738714_s_at) / RFU VCAN (11748164_a_at) / Fold change /veh VCAN (11748164_a_at) / RFU JSRP1 (11732532_at) / Fold change /veh JSRP1 (11732532_at) / RFU KRTAP10-11 (11738290_x_at) / Fold change /veh KRTAP10-11 (11738290_x_at) / RFU MYO3A (11730013_a_at) / Fold change /veh MYO3A (11730013_a_at) / RFU EBF3 (11725865_a_at) / Fold change /veh EBF3 (11725865_a_at) / RFU CAMK2N1 (11719241_x_at) / Fold change /veh CAMK2N1 (11719241_x_at) / RFU C5orf56 (11738088_a_at) / Fold change /veh C5orf56 (11738088_a_at) / RFU OLFML3 (11715873_a_at) / Fold change /veh OLFML3 (11715873_a_at) / RFU LOC100653217 /// NTM (11731650_a_at) / Fold change /veh LOC100653217 /// NTM (11731650_a_at) / RFU MAPK11 (11762145_a_at) / Fold change /veh MAPK11 (11762145_a_at) / RFU FIZ1 (11724087_x_at) / Fold change /veh FIZ1 (11724087_x_at) / RFU OASL (11726364_x_at) / Fold change /veh OASL (11726364_x_at) / RFU SOX15 (11748057_x_at) / Fold change /veh SOX15 (11748057_x_at) / RFU CD79A (11719716_a_at) / Fold change /veh CD79A (11719716_a_at) / RFU HIST1H1D (11736915_at) / Fold change /veh HIST1H1D (11736915_at) / RFU CASKIN2 (11723855_a_at) / Fold change /veh CASKIN2 (11723855_a_at) / RFU LOC730098 (11760151_x_at) / Fold change /veh LOC730098 (11760151_x_at) / RFU OR4N2 (11742367_at) / Fold change /veh OR4N2 (11742367_at) / RFU PRRT2 (11749266_a_at) / Fold change /veh PRRT2 (11749266_a_at) / RFU SNX32 (11753110_a_at) / Fold change /veh SNX32 (11753110_a_at) / RFU CDHR5 (11726645_a_at) / Fold change /veh CDHR5 (11726645_a_at) / RFU RCAN1 (11760418_a_at) / Fold change /veh RCAN1 (11760418_a_at) / RFU FAM167A (11723789_a_at) / Fold change /veh FAM167A (11723789_a_at) / RFU FAM26E (11764081_at) / Fold change /veh FAM26E (11764081_at) / RFU ISYNA1 (11749810_s_at) / Fold change /veh ISYNA1 (11749810_s_at) / RFU ACY1 (11761880_at) / Fold change /veh ACY1 (11761880_at) / RFU 11764098_at / Fold change /veh 11764098_at / RFU SAMD14 (11745864_x_at) / Fold change /veh SAMD14 (11745864_x_at) / RFU NPB (11741838_a_at) / Fold change /veh NPB (11741838_a_at) / RFU TMPRSS6 (11731388_a_at) / Fold change /veh TMPRSS6 (11731388_a_at) / RFU KRTAP10-2 (11738614_at) / Fold change /veh KRTAP10-2 (11738614_at) / RFU ARHGAP8 /// PRR5-ARHGAP8 (11727945_x_at) / Fold change /veh ARHGAP8 /// PRR5-ARHGAP8 (11727945_x_at) / RFU KRTAP5-7 /// NADSYN1 (11734609_at) / Fold change /veh KRTAP5-7 /// NADSYN1 (11734609_at) / RFU RASL12 (11751679_a_at) / Fold change /veh RASL12 (11751679_a_at) / RFU CDKN2B (11736163_a_at) / Fold change /veh CDKN2B (11736163_a_at) / RFU PRF1 (11729649_at) / Fold change /veh PRF1 (11729649_at) / RFU, ZNF638 /// ZNF638-IT1 / Fold change vs veh, ZNF638 /// ZNF638-IT1 / RFU, PANK3 / Fold change vs veh, PANK3 / RFU, SH3YL1 / Fold change vs veh, SH3YL1 / RFU, ZEB2 / Fold change vs veh, ZEB2 / RFU, NRIP1 / Fold change vs veh, NRIP1 / RFU, PTTG1IP / Fold change vs veh, PTTG1IP / RFU, CAPN2 / Fold change vs veh, CAPN2 / RFU, MED14 / Fold change vs veh, MED14 / RFU, SNORA58 / Fold change vs veh, SNORA58 / RFU, C1orf63 / Fold change vs veh, C1orf63 / RFU, LRRFIP1 / Fold change vs veh, LRRFIP1 / RFU, NDUFAF7 / Fold change vs veh, NDUFAF7 / RFU, SLC12A2 / Fold change vs veh, SLC12A2 / RFU, IBTK / Fold change vs veh, IBTK / RFU, ESF1 / Fold change vs veh, ESF1 / Fold change vs veh, TMEM50B / RFU, TAOK1 / Fold change vs veh, TAOK1 / RFU, ACBD3 / Fold change vs veh, ACBD3 / RFU, TMA16 / Fold change vs veh, TMA16 / RFU, RWDD3 / Fold change vs veh, RWDD3 / RFU, BCAT1 / Fold change vs veh, BCAT1 / RFU, EDEM3 / Fold change vs veh, EDEM3 / RFU, TMEM33 / Fold change vs veh, TMEM33 / RFU, WDR75 / Fold change vs veh, WDR75 / RFU, AHCTF1 / Fold change vs veh, AHCTF1 / RFU, TFRC / Fold change vs veh, TFRC / RFU, ZDHHC17 / Fold change vs veh, ZDHHC17 / RFU, NOM1 / Fold change vs veh, NOM1 / RFU, ARL8B / Fold change vs veh, ARL8B / RFU, ZBTB11 / Fold change vs veh, ZBTB11 / RFU, TAMM41 / Fold change vs veh, TAMM41 / RFU, KIAA1704 /// LOC100996395 / Fold change vs veh, KIAA1704 /// LOC100996395 / RFU, ING1 / Fold change vs veh, ING1 / RFU, TRMT61B / Fold change vs veh, TRMT61B / RFU, FUBP3 / Fold change vs veh, FUBP3 / RFU, TP53 / Fold change vs veh, TP53 / RFU, TNKS2 / Fold change vs veh, TNKS2 / RFU, ZFP14 / Fold change vs veh, ZFP14 / RFU, ACTR2 / Fold change vs veh, ACTR2 / RFU, PPP3R1 / Fold change vs veh, PPP3R1 / RFU, PIK3R1 / Fold change vs veh, PIK3R1 / RFU, HNRNPA1 / Fold change vs veh, HNRNPA1 / RFU, RNF170 / Fold change vs veh, RNF170 / RFU, ZNF28 / Fold change vs veh, ZNF28 / RFU, RNGTT / Fold change vs veh, RNGTT / RFU, OGT / Fold change vs veh, OGT / RFU, BRD1 / Fold change vs veh, BRD1 / RFU, MARS / Fold change vs veh, MARS / RFU, ZNF655 / Fold change vs veh, ZNF655 / RFU, FAHD1 / Fold change vs veh, FAHD1 / RFU, BDP1 / Fold change vs veh, BDP1 / RFU, LRRCC1 / Fold change vs veh, LRRCC1 / RFU, ARID1A / Fold change vs veh, ARID1A / RFU, ZNF146 / Fold change vs veh, ZNF146 / RFU, ZNF330 / Fold change vs veh, ZNF330 / RFU, GPN3 / Fold change vs veh, GPN3 / RFU, C9orf123 / Fold change vs veh, C9orf123 / RFU, N4BP2L2 / Fold change vs veh, N4BP2L2 / RFU, ARFIP1 / Fold change vs veh, ARFIP1 / RFU, FAM179B / Fold change vs veh, FAM179B / RFU, BCL10 / Fold change vs veh, BCL10 / RFU, UHRF1BP1L / Fold change vs veh, UHRF1BP1L / RFU, BET1 / Fold change vs veh, BET1 / RFU, CNOT2 / Fold change vs veh, CNOT2 / RFU, ZNF268 / Fold change vs veh, ZNF268 / Fold change vs veh, ZNF507 / RFU, DGCR2 / Fold change vs veh, DGCR2 / RFU, WDSUB1 / Fold change vs veh, WDSUB1 / Fold change vs veh, HSP90B1 /// MIR3652 / RFU, ADSS / Fold change vs veh, ADSS / RFU, GK / Fold change vs veh, GK / RFU, ZNF148 / Fold change vs veh, ZNF148 / RFU, TAF9 / Fold change vs veh, TAF9 / RFU, SLC1A5 / Fold change vs veh, SLC1A5 / RFU, SLMO2 / Fold change vs veh, SLMO2 / RFU, ABCC4 / Fold change vs veh, ABCC4 / RFU, LOC101060439 /// RAP1B / Fold change vs veh, LOC101060439 /// RAP1B / RFU, RFX7 / Fold change vs veh, RFX7 / RFU, GTPBP10 / Fold change vs veh, GTPBP10 / RFU, CNEP1R1 / Fold change vs veh, CNEP1R1 / RFU, BIVM-ERCC5 /// ERCC5 / Fold change vs veh, BIVM-ERCC5 /// ERCC5 / RFU, ILF3 / Fold change vs veh, ILF3 / RFU 11762660_at / Fold change /veh 11762660_at / RFU VCAN (11757783_s_at) / Fold change /veh VCAN (11757783_s_at) / RFU DDX43 (11728927_at) / Fold change /veh DDX43 (11728927_at) / RFU KRT8 (11758188_x_at) / Fold change /veh KRT8 (11758188_x_at) / RFU NKD1 (11759106_at) / Fold change /veh NKD1 (11759106_at) / RFU SRD5A1 (11742802_a_at) / Fold change /veh SRD5A1 (11742802_a_at) / RFU TPSAB1 /// TPSB2 (11721975_s_at) / Fold change /veh TPSAB1 /// TPSB2 (11721975_s_at) / RFU GSTM3 (11746129_a_at) / Fold change /veh GSTM3 (11746129_a_at) / RFU IL23R (11737362_x_at) / Fold change /veh IL23R (11737362_x_at) / RFU TMEM51 (11727254_a_at) / Fold change /veh TMEM51 (11727254_a_at) / RFU PIWIL2 (11732686_x_at) / Fold change /veh PIWIL2 (11732686_x_at) / RFU ORM1 (11744905_x_at) / Fold change /veh ORM1 (11744905_x_at) / RFU CCDC152 (11743942_at) / Fold change /veh CCDC152 (11743942_at) / RFU ECM1 (11717891_a_at) / Fold change /veh ECM1 (11717891_a_at) / RFU IL23R (11748794_a_at) / Fold change /veh IL23R (11748794_a_at) / RFU TNFAIP8L3 (11732012_x_at) / Fold change /veh TNFAIP8L3 (11732012_x_at) / RFU MBOAT4 (11741988_at) / Fold change /veh MBOAT4 (11741988_at) / RFU 11764193_at / Fold change /veh 11764193_at / RFU TMEM53 (11763286_at) / Fold change /veh TMEM53 (11763286_at) / RFU MAGEB2 (11727129_at) / Fold change /veh MAGEB2 (11727129_at) / RFU TMEM200A (11744735_a_at) / Fold change /veh TMEM200A (11744735_a_at) / RFU CCDC152 (11751479_a_at) / Fold change /veh CCDC152 (11751479_a_at) / RFU FAM211A (11726209_a_at) / Fold change /veh FAM211A (11726209_a_at) / RFU RGS16 (11746705_a_at) / Fold change /veh RGS16 (11746705_a_at) / RFU VCAN (11755009_s_at) / Fold change /veh VCAN (11755009_s_at) / RFU RHOB (11743442_s_at) / Fold change /veh RHOB (11743442_s_at) / RFU RGS16 (11720943_a_at) / Fold change /veh RGS16 (11720943_a_at) / RFU RGS16 (11720944_at) / Fold change /veh RGS16 (11720944_at) / RFU, VPS4B / Fold change vs veh, VPS4B / RFU, CREB1 / Fold change vs veh, CREB1 / RFU, DNAJC13 / Fold change vs veh, DNAJC13 / RFU, GNAQ / Fold change vs veh, GNAQ / RFU, CDK5R1 / Fold change vs veh, CDK5R1 / RFU, ZRANB3 / Fold change vs veh, ZRANB3 / RFU, CUL4A / Fold change vs veh, CUL4A / RFU, CCNY / Fold change vs veh, CCNY / RFU, UFL1 / Fold change vs veh, UFL1 / RFU, COG3 / Fold change vs veh, COG3 / RFU, DIAPH2 / Fold change vs veh, DIAPH2 / RFU, SKA2 / Fold change vs veh, SKA2 / RFU, AFF3 / Fold change vs veh, AFF3 / RFU, LMF1 / Fold change vs veh, LMF1 / RFU, IPO11 / Fold change vs veh, IPO11 / RFU, DFFB / Fold change vs veh, DFFB / RFU, FOXP1 / Fold change vs veh, FOXP1 / RFU, CARD8 / Fold change vs veh, CARD8 / RFU, STRN3 / Fold change vs veh, STRN3 / RFU, ADK / Fold change vs veh, ADK / RFU, RASSF2 / Fold change vs veh, RASSF2 / RFU, WIPF1 / Fold change vs veh, WIPF1 / RFU, LARP1B / Fold change vs veh, LARP1B / RFU, RASA1 / Fold change vs veh, RASA1 / RFU, RB1 / Fold change vs veh, RB1 / RFU, PPFIA1 / Fold change vs veh, PPFIA1 / RFU, MAT2A / Fold change vs veh, MAT2A / RFU, CCT5 / Fold change vs veh, CCT5 / RFU, WDR92 / Fold change vs veh, WDR92 / RFU, CUX1 / Fold change vs veh, CUX1 / RFU, TTC7A / Fold change vs veh, TTC7A / RFU, TMEM135 / Fold change vs veh, TMEM135 / RFU, DEPTOR / Fold change vs veh, DEPTOR / RFU, CPM / Fold change vs veh, CPM / RFU, DNAJB6 / Fold change vs veh, DNAJB6 / RFU, CACNA2D3 / Fold change vs veh, CACNA2D3 / RFU, DTX4 / Fold change vs veh, DTX4 / RFU, TFCP2 / Fold change vs veh, TFCP2 / RFU, GMCL1 /// GMCL1P1 / Fold change vs veh, GMCL1 /// GMCL1P1 / RFU, AEBP2 / Fold change vs veh, AEBP2 / RFU, SNHG1 /// SNORD22 /// SNORD25 /// SNORD26 /// SNORD27 /// SNORD28 /// SNORD29 /// SNORD31 / Fold change vs veh, SNHG1 /// SNORD22 /// SNORD25 /// SNORD26 /// SNORD27 /// SNORD28 /// SNORD29 /// SNORD31 / Fold change (Aza/veh), C12orf56 (ProbeSet 11735607_a_at) / Fold change (ACY-1035/veh), C12orf56 (ProbeSet 11735607_a_at) / Fold change (Aza/veh), FGFR1OP (ProbeSet 11751329_s_at) / Fold change (ACY-1035/veh), FGFR1OP (ProbeSet 11751329_s_at) / Fold change (Aza/veh), VPS36 (ProbeSet 11739960_a_at) / Fold change (ACY-1035/veh), VPS36 (ProbeSet 11739960_a_at) / RFU SYPL1 (11715823_x_at) / Fold change /veh SYPL1 (11715823_x_at) / RFU IGFBP7 (11715501_s_at) / Fold change /veh IGFBP7 (11715501_s_at) / RFU REEP3 (11722064_at) / Fold change /veh REEP3 (11722064_at) / RFU IGLL1 (11728026_x_at) / Fold change /veh IGLL1 (11728026_x_at): dose or concentration left out as unconfirmed
Conditions: ProbeSet 11733108_at; LIST D

Structure (SMILES): Nc1ccc(-c2cccs2)cc1NC(=O)c1ccc2c(c1)cc(C1CC1)n2CCN1CCOCC1 [ACY-1035]
- RFU, GNAQ: 275.03 RFU
